Laboratory results reported in patent publication US7964531B2, “3-phenoxy-4-pyridazinol derivatives and herbicidal composition containing the same” (Mitsui Chemicals Agro, Inc., priority 2001, dated 2011).

Row | melting point | SMILES
1 | 123 to 126 °C | COCc1c(Cl)nnc(Oc2ccccc2C)c1O [Compound No. 2378, 6-Chloro-5-(methoxymethyl)-3-(2-methylphenoxy)-4-pyridazinol]
2 | 133 to 134 °C | Cc1ccccc1C(=O)Oc1cc(Cl)nnc1Oc1cccc2ccccc12 [Compound No. 1461, 6-Chloro-3-(1-naphthyloxy)-4-pyridazinyl 2-methylbenzoate]
3 | 135 to 137 °C | COc1ccc(Br)cc1Oc1nnc(Cl)cc1O [Compound No. 702, 3-(5-Bromo-2-methoxyphenoxy)-6-chloro-4-pyridazinol]
4 | 182 to 184 °C | CC(=O)c1ccc(Oc2nnc(Cl)cc2O)c(C)c1 [Compound No. 2570, 1-{4-[(6-Chloro-4-hydroxy-3-pyridazinyl)oxy]-3-methylphenyl}ethanone]
5 | 280 to 290 °C | Cc1cc(C)c(Br)c(Oc2nnc(Cl)cc2O)c1C [Compound No. 1124, 3-(2-Bromo-3,5,6-trimethylphenoxy)-6-chloro-4-pyridazinol]
6 | 232 to 253 °C (dec.) | CC(C)c1cccc(Br)c1Oc1nnc(Cl)cc1O [Compound No. 760, 3-(2-Bromo-6-isopropylphenoxy)-6-chloro-4-pyridazinol]
7 | 110 to 115 °C | Cc1ccccc1Oc1nnc(Cl)c(Oc2ccccc2C)c1O [Compound No. 2395, 6-Chloro-3,5-bis(2-methylphenoxy)-4-pyridazinol]
8 | 83.5 to 84.5 °C | CC(C)(C)c1ccccc1Oc1nnc(Cl)cc1OS(=O)(=O)c1ccc(Cl)cc1 [Compound No. 2200, 3-(2-tert-Butylphenoxy)-6-chloro-4-pyridazinyl 4-chlorobenzenesulfonate]
9 | 96 to 97 °C | CCS(=O)(=O)Oc1cc(Cl)nnc1Oc1c(C)cccc1C1CC1 [Compound No. 2034, 6-Chloro-3-(2-cyclopropyl-6-methylphenoxy)-4-pyridazinyl ethanesulfonate]
10 | 248 to 251 °C | Oc1cccc(Oc2nnc(Cl)cc2O)c1 [Compound No. 2544, 6-Chloro-3-(3-hydroxyphenoxy)-4-pyridazinol]
11 | 250 to 252 °C | Cc1cccc(I)c1Oc1nnc(Cl)cc1O [Compound No. 780, 6-Chloro-3-(2-iodo-6-methylphenoxy)-4-pyridazinol]
12 | 106 to 108 °C | Cc1ccc(S(=O)(=O)Oc2cc(Cl)nnc2Oc2ccccc2-c2ccccc2)cc1 [Compound No. 2231, 3-([1,1′-Biphenyl]-2-yloxy)-6-chloro-4-pyridazinyl 4-methylbenzenesulfonate]
13 | 143 to 155 °C | COc1ccc(Cl)cc1Oc1nnc(Cl)cc1O [Compound No. 701, 3-(5-Chloro-2-methoxyphenoxy)-6-chloro-4-pyridazinol]
14 | 126 to 127 °C | Cc1ccccc1Oc1nnc(Cl)cc1OC(=O)N1CCCC1 [Compound No. 1924, 6-Chloro-3-(2-methylphenoxy)-4-pyridazinyl 1-pyrrolidinecarboxylate]
15 | 232 to 234 °C | Oc1cc(Cl)nnc1Oc1c(C2CC2)cccc1C1CC1 [Compound No. 931, 6-Chloro-3-(2,6-dicyclopropylphenoxy)-4-pyridazinol]
16 | 90 to 92 °C | Cc1ccc(S(=O)(=O)Oc2cc(Cl)nnc2Oc2cc(C)ccc2C(C)C)cc1 [Compound No. 2249, 6-Chloro-3-(2-isopropyl-5-methylphenoxy)-4-pyridazinyl 4-methylbenzenesulfonate]
17 | 143 to 144 °C | Cc1cccc(C2CC2)c1Oc1nnc(Cl)cc1OC(=O)c1cccn1C [Compound No. 3282, 6-Chloro-3-(2-cyclopropyl-6-methylphenoxy)-4-pyridazinyl 1-methyl-1H-pyrrole-2-carboxylate]
18 | 119 to 122 °C | Cc1ccc(S(=O)(=O)Oc2cc(Cl)nnc2Oc2ccc(Br)cc2C(C)C)cc1 [Compound No. 2248, 3-(4-Bromo-2-isopropylphenoxy)-6-chloro-4-pyridazinyl 4-methylbenzenesulfonate]
19 | 77.5 to 78 °C | Cc1ccc(C(=O)Oc2cc(Cl)nnc2Oc2c(C)cccc2C2CC2)cc1 [Compound No. 1566, 6-Chloro-3-(2-cyclopropyl-6-methylphenoxy)-4-pyridazinyl 4-methylbenzoate]
20 | 203 to 206 °C | Cn1ccc2c(Oc3nnc(Cl)cc3O)cccc21 [Compound No. 2565, 6-Chloro-3-[(1-methyl-1H-indol-4-yl)oxy]-4-pyridazinol]
21 | 99 to 100 °C | Cc1ccc(S(=O)(=O)Oc2cc(Cl)nnc2Oc2ccccc2C(C)C)cc1 [Compound No. 2222, 6-Chloro-3-(2-isopropylphenoxy)-4-pyridazinyl 4-methylbenzenesulfonate]
22 | 95 to 97 °C | Cc1ccc(C(C)C)c(Oc2nnc(Cl)cc2OC(=O)c2ccccc2C)c1 [Compound No. 1459, 6-Chloro-3-(2-isopropyl-5-methylphenoxy)-4-pyridazinyl 2-methylbenzoate]
23 | 71 to 74 °C | Cc1cccc(C2CC2)c1Oc1nnc(Cl)cc1OC(=O)CC(C)C [Compound No. 1184, 6-Chloro-3-(2-cyclopropyl-6-methylphenoxy)-4-pyridazinyl 3-methylbutanoate]

The remaining lines, values behind:

Row | SMILES | melting point
24 | C[Si](C)(C)c1ccc(Oc2nnc(Cl)cc2OC(=O)c2ccccc2)cc1 | 100 to 102 °C
25 | COc1cccc(Oc2nnc(Cl)cc2O)c1C1CC1 [Compound No. 478, 6-Chloro-3-(2-cyclopropyl-3-methoxyphenoxy)-4-pyridazinol] | 184 to 185 °C
26 | N#CC1(c2ccccc2Oc2nnc(Cl)cc2O)CC1 [Compound No. 173, 1-{2-[(6-Chloro-4-hydroxy-3-pyridazinyl)oxy]phenyl}cyclopropanecarbonitrile] | 63 to 64 °C
27 | CC#Cc1ccccc1Oc1nnc(Cl)cc1O [Compound No. 309, 6-Chloro-3-[2-(1-propynyl)phenoxy]-4-pyridazinol] | 182 to 184 °C
28 | Cc1cc(Cl)ccc1Oc1nnc(Cl)cc1O [Compound No. 558, 6-Chloro-3-(4-chloro-2-methylphenoxy)-4-pyridazinol] | 235 to 235.5 °C
29 | CC(C)c1ccccc1Oc1nnccc1O [Compound No. 6, 3-(2-Isopropylphenoxy)-4-pyridazinol] | 181.5 to 182 °C
30 | Oc1cc(Cl)nnc1Oc1cccc2c1CCO2 [Compound No. 528, 6-Chloro-3-(2,3-dihydro-1-benzofuran-4-yloxy)-4-pyridazinol] | 219 to 221 °C
31 | CC(C)Sc1ccccc1Oc1nnc(Cl)cc1O [Compound No. 403, 6-Chloro-3-[2-(isopropylsulfanyl)phenoxy]-4-pyridazinol] | 176 to 177 °C
32 | CC(C)c1cc(Br)ccc1Oc1nnc(Cl)cc1O [Compound No. 566, 3-(4-Bromo-2-isopropylphenoxy)-6-chloro-4-pyridazinol] | 215 to 225 °C
33 | C=C(C)c1ccccc1Oc1nnc(Cl)cc1O [Compound No. 304, 6-Chloro-3-(2-isopropenylphenoxy)-4-pyridazinol] | 187 to 188 °C
34 | COc1ccc(Oc2nnc(Cl)cc2O)cc1 [Compound No. 435, 6-Chloro-3-(4-methoxyphenoxy)-4-pyridazinol] | 260 to 263.5 °C
35 | Oc1cc(Cl)nnc1Oc1ccc(Cl)cc1 [Compound No. 427, 6-Chloro-3-(4-chlorophenoxy)-4-pyridazinol] | 226 to 231 °C
36 | CCc1cc(I)ccc1Oc1nnc(Cl)cc1O [Compound No. 562, 6-Chloro-3-(2-ethyl-4-iodophenoxy)-4-pyridazinol] | 199 to 201 °C
37 | Oc1cc(Cl)nnc1Oc1ccc(F)cc1 [Compound No. 426, 6-Chloro-3-(4-fluorophenoxy)-4-pyridazinol] | 241 to 248 °C
38 | CN(C)S(=O)(=O)n1ccc(-c2ccccc2Oc2nnc(Cl)cc2O)n1 [Compound No. 368, 3-{2-[(6-Chloro-4-hydroxy-3-pyridazinyl)oxy]phenyl}N,N-dimethyl-1H-pyrazole-1-sulfonamide] | 210 to 212 °C
39 | C#Cc1ccccc1Oc1nnc(Cl)cc1O [Compound No. 308, 6-Chloro-3-(2-ethynylphenoxy)-4-pyridazinol] | 189 to 191 °C
40 | CC=Cc1ccccc1Oc1nnc(Cl)cc1O [Compound No. 305, 6-Chloro-3-[2-(1-propenyl)phenoxy}-4-pyridazinol] | 204 to 206 °C
41 | COCc1ccccc1Oc1nnc(Cl)cc1O [Compound No. 324, 6-Chloro-3-[2-(methoxymethyl)phenoxy]-4-pyridazinol] | 211 to 212 °C
42 | Oc1cc(Cl)nnc1Oc1cccc2c1CCCC2 [Compound No. 521, 6-Chloro-3-(5,6,7,8-tetrahydro-1-naphthalenyloxy)-4-pyridazinol] | 232 to 237 °C
43 | Cc1ccc(C(C)C)cc1Oc1nnc(Cl)cc1O [Compound No. 623, 6-Chloro-3-(5-isopropyl-2-methylphenoxy)-4-pyridazinol] | 168 to 169 °C
44 | Cc1c(Cl)cccc1Oc1nnc(Cl)cc1O [Compound No. 454, 6-Chloro-3-(3-chloro-2-methylphenoxy)-4-pyridazinol] | 250 to 252 °C
45 | CON(C)C(=O)Oc1cc(Cl)nnc1Oc1c(C)cccc1C1CC1 | 63 to 64.5 °C
46 | O=C(O)C1(c2ccccc2Oc2nnc(Cl)cc2O)CCC1 [Compound No. 288, 1-{2-[(6-Chloro-4-hydroxy-3-pyridazinyl)oxy]phenyl}cyclobutanecarboxylic acid] | 173 to 175 °C
47 | Cc1ccccc1Oc1n[n+]([O-])c(Cl)cc1O [Compound No. 129, 6-Chloro-3-(2-methylphenoxy)-4-pyridazinol 1-oxide] | 194 to 196 °C
48 | Oc1cc(Cl)nnc1Oc1ccccc1Br [Compound No. 126, 3-(2-Bromophenoxy)-6-chloro-4-pyridazinol] | 201 to 203 °C
49 | Oc1ccccc1Oc1nnc(Cl)cc1O [Compound No. 384, 6-Chloro-3-(2-hydroxyphenoxy)-4-pyridazinol] | 216 to 219 °C
50 | CCC(C)c1ccccc1Oc1nnc(Cl)cc1O (stereo not drawn) [Compound No. 135, 3-(2-s-Butylphenoxy)-6-chloro-4-pyridazinol] | 158 to 159 °C
51 | Cc1cccc(C2CC2)c1Oc1nnc(Cl)cc1OC(=O)N(C)C | 136 to 138 °C
